# From PubChem BioAssay (NCI)
# Values joined by “and” are separate entries in the source; they are usually repeats but may differ in a detail not shown here. Equal entries are not always repeated.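 Where inhibition never reached the appropriate level, the endpoint shown equals the highest concentration tested. Otherwise, values were interpolated linearly from a five-concentration, 48-hour dose response in 96-well plates. GI50 marks 50% less growth. TGI marks complete inhibition of growth.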
# How the values were obtained:
# Test in all cases: NCI-60 cell line screen, 48 h
# [1] = test system: SF-268 CNS
# [2] = test system: U251 CNS
# [3] = test system: KM12 colon
# [4] = test system: PC-3 prostate
# [5] = test system: SN12C renal
# [6] = test system: IGROV1 ovarian
# [7] = test system: HL-60(TB) leukemia
# [8] = test system: SNB-19 CNS
# [9] = test system: SK-MEL-5 melanoma
# [10] = test system: SF-295 CNS
# [11] = test system: CAKI-1 renal
# [12] = test system: NCI-H226 lung
# [13] = test system: SR leukemia
# [14] = test system: HT29 colon
# [15] = test system: ACHN renal
# [16] = test system: A549 NSCLC
# [17] = test system: MCF7 breast
# [18] = test system: NCI-H522 lung
# [19] = test system: HOP-92 NSCLC
# [20] = test system: DU-145 prostate
# [21] = test system: HOP-62 NSCLC
# [22] = test system: SF-539 CNS
# [23] = test system: UACC-62 melanoma
# [24] = test system: HCT-15 colon
# [25] = test system: MDA-MB-231 breast
# [26] = test system: BT-549 breast
# [27] = test system: CCRF-CEM leukemia
# [28] = test system: RPMI-8226 leukemia
# [29] = test system: UO-31 renal
# [30] = test system: 786-0 renal
# [31] = test system: UACC-257 melanoma
# [32] = test system: SNB-75 CNS
# [33] = test system: OVCAR-8 ovarian
# [34] = test system: SK-MEL-2 melanoma
# [35] = test system: MOLT-4 leukemia
# [36] = test system: K-562 leukemia
# [37] = test system: HCT-116 colon
# [38] = test system: EKVX NSCLC
# [39] = test system: LOX IMVI melanoma
# [40] = test system: SW-620 colon
# [41] = test system: M14 melanoma
# [42] = test system: T-47D breast
# [43] = test system: SK-MEL-28 melanoma
# [44] = test system: HCC-2998 colon
# [45] = test system: MDA-MB-435
# [46] = test system: HS 578T breast
# [47] = test system: COLO 205 colon
# [48] = test system: A498 renal
# [49] = test system: NCI/ADR-RES ovarian
# [50] = test system: NCI-H23 lung
# [51] = test system: OVCAR-5 ovarian
# [52] = test system: TK-10 renal
# [53] = test system: MALME-3M melanoma
# [54] = test system: RXF 393 renal
# [55] = test system: OVCAR-3 ovarian
# [56] = test system: NCI-H460 lung
# [57] = test system: OVCAR-4 ovarian
# [58] = test system: SK-OV-3 ovarian
structure (smiles),measurement,setting,value
Nc1ncc(-c2ccc3ncnc(Nc4cccc(Cl)c4)c3c2)cn1,GI50,[1],294 nM and 1950 nM
same,TGI,[1],> 100000 nM
same,GI50,[2],538 nM
same,GI50,[3],4790 nM
same,TGI,[3],> 100000 nM
same,GI50,[4],1480 nM
same,TGI,[4],> 100000 nM
same,GI50,[5],1820 nM
same,TGI,[5],> 100000 nM
same,GI50,[6],20.6 nM
same,TGI,[6],223 nM
same,GI50,[7],525 nM
same,GI50,[8],387 nM and 2280 nM
same,TGI,[8],> 100000 nM
same,GI50,[9],2310 nM
same,TGI,[9],> 100000 nM
same,GI50,[10],216 nM
same,GI50,[11],34.6 nM
same,GI50,[12],294 nM
same,GI50,[13],268 nM
same,GI50,[14],1750 nM
same,TGI,[14],> 100000 nM
same,GI50,[15],23.2 nM
same,GI50,[16],1700 nM
same,TGI,[16],> 100000 nM
same,GI50,[17],186 nM
same,GI50,[18],128 nM
same,TGI,[18],4950 nM
same,GI50,[19],7.41 nM
same,TGI,[19],97.4 nM
same,GI50,[20],809 nM
same,TGI,[20],> 100000 nM
same,GI50,[21],388 nM and 2980 nM
same,TGI,[21],> 100000 nM
same,GI50,[22],279 nM and 2140 nM
same,TGI,[22],> 100000 nM
same,GI50,[23],2690 nM
same,TGI,[23],> 100000 nM
same,GI50,[24],217 nM and 1570 nM
same,TGI,[24],> 100000 nM
same,GI50,[25],2220 nM
same,TGI,[25],> 100000 nM
same,GI50,[26],262 nM
same,GI50,[27],1850 nM
same,TGI,[27],> 100000 nM
same,GI50,[28],206 nM
same,GI50,[29],452 nM
same,TGI,[29],> 100000 nM
same,GI50,[30],339 nM and 1780 nM
same,TGI,[30],> 100000 nM
same,GI50,[31],> 100000 nM
same,TGI,[31],> 100000 nM
same,GI50,[32],109 nM
same,TGI,[32],695 nM
same,GI50,[33],2870 nM
same,TGI,[33],> 100000 nM
OC1NC2Nc3ccccc3NC2NC1O (centres undefined),TGI,[34],> 100000 nM
same,TGI,[1],> 100000 nM
same,TGI,[2],> 100000 nM
same,TGI,[35],> 100000 nM
same,TGI,[3],> 100000 nM
same,TGI,[36],> 100000 nM
same,TGI,[4],> 100000 nM
same,TGI,[5],> 100000 nM
same,TGI,[37],> 100000 nM
same,TGI,[6],> 100000 nM
same,TGI,[7],> 100000 nM
same,TGI,[8],> 100000 nM
same,TGI,[38],> 100000 nM
same,TGI,[39],> 100000 nM
same,TGI,[9],> 100000 nM
same,TGI,[10],> 100000 nM
same,TGI,[11],> 100000 nM
same,TGI,[40],> 100000 nM
same,TGI,[41],> 100000 nM
same,TGI,[12],> 100000 nM
same,TGI,[42],> 100000 nM
same,TGI,[13],> 100000 nM
same,TGI,[14],> 100000 nM
same,TGI,[43],> 100000 nM
same,TGI,[44],> 100000 nM
same,TGI,[15],> 100000 nM
same,TGI,[16],> 100000 nM
same,TGI,[45],> 100000 nM
same,TGI,[17],> 100000 nM
same,TGI,[18],> 100000 nM
same,TGI,[19],> 100000 nM
same,TGI,[46],> 100000 nM
same,TGI,[47],> 100000 nM
same,TGI,[20],> 100000 nM
same,TGI,[48],> 100000 nM
same,TGI,[49],> 100000 nM
same,TGI,[21],> 100000 nM
same,TGI,[22],> 100000 nM
same,TGI,[23],> 100000 nM
same,TGI,[50],> 100000 nM
same,TGI,[51],> 100000 nM
same,TGI,[24],> 100000 nM
same,TGI,[52],> 100000 nM
same,TGI,[25],> 100000 nM
same,TGI,[53],> 100000 nM
same,TGI,[54],> 100000 nM
same,TGI,[55],> 100000 nM
same,TGI,[27],> 100000 nM
same,TGI,[30],> 100000 nM
same,TGI,[56],> 100000 nM
same,TGI,[31],> 100000 nM
same,TGI,[32],> 100000 nM
same,TGI,[33],> 100000 nM
same,TGI,[57],> 100000 nM
same,TGI,[58],> 100000 nM
C=C(C)[C@@H]1CC[C@]2(CO)CC[C@]3(C)[C@H](CC[C@@H]4[C@@]5(C)CCCNC(C)(C)[C@@H]5CC[C@]43C)[C@@H]12,GI50,[1],1740 nM
same,TGI,[1],3540 nM
same,GI50,[2],1650 nM
same,TGI,[2],3090 nM
same,GI50,[35],1790 nM
same,TGI,[35],4500 nM
same,GI50,[3],1730 nM
same,TGI,[3],3240 nM
same,GI50,[36],1080 nM
same,TGI,[36],3790 nM
same,GI50,[4],1510 nM
same,TGI,[4],2940 nM
same,GI50,[5],1620 nM
same,TGI,[5],3030 nM
same,GI50,[37],1290 nM
same,TGI,[37],2630 nM
same,GI50,[6],1660 nM
same,TGI,[6],3260 nM
same,GI50,[8],1750 nM
same,TGI,[8],3200 nM
same,GI50,[38],1550 nM
same,TGI,[38],3030 nM
same,GI50,[9],1380 nM
same,TGI,[9],2700 nM
same,GI50,[10],1660 nM
same,TGI,[10],3130 nM
same,GI50,[11],1550 nM
same,TGI,[11],2890 nM
same,GI50,[40],1810 nM
same,TGI,[40],3410 nM
same,GI50,[41],1580 nM
same,TGI,[41],3130 nM
same,GI50,[12],1980 nM
same,TGI,[12],4090 nM
same,GI50,[42],1730 nM
same,TGI,[42],3710 nM
same,GI50,[43],1620 nM
same,TGI,[43],3160 nM
same,GI50,[44],1510 nM
same,TGI,[44],2930 nM
same,GI50,[15],1700 nM
same,TGI,[15],3090 nM
same,GI50,[16],1730 nM
same,TGI,[16],3240 nM
same,GI50,[17],1290 nM
same,TGI,[17],2770 nM
same,GI50,[19],1730 nM
same,TGI,[19],3330 nM
same,GI50,[46],1990 nM
same,TGI,[46],4790 nM
same,GI50,[47],1540 nM
same,TGI,[47],3240 nM
same,GI50,[20],1630 nM
same,TGI,[20],3020 nM
same,GI50,[48],2170 nM
same,TGI,[48],5630 nM
same,GI50,[49],1630 nM
same,TGI,[49],3180 nM
same,GI50,[21],1810 nM
same,TGI,[21],3420 nM
same,GI50,[22],1580 nM
same,TGI,[22],3010 nM
same,GI50,[23],1820 nM
same,TGI,[23],3250 nM
same,GI50,[50],1710 nM
same,TGI,[50],3390 nM
same,GI50,[51],1510 nM
same,TGI,[51],2890 nM
same,GI50,[24],1390 nM
same,TGI,[24],2770 nM
same,GI50,[52],1760 nM
same,TGI,[52],3500 nM
same,GI50,[25],1770 nM
same,TGI,[25],3210 nM
same,GI50,[53],1500 nM
same,TGI,[53],3050 nM
same,GI50,[54],1680 nM
same,TGI,[54],3180 nM
same,GI50,[55],1660 nM
same,TGI,[55],3130 nM
same,GI50,[27],2070 nM
same,TGI,[27],4910 nM
same,GI50,[28],1940 nM
same,TGI,[28],4510 nM
same,GI50,[29],1560 nM
same,TGI,[29],2990 nM
same,GI50,[30],1620 nM
same,TGI,[30],3160 nM
same,GI50,[56],1630 nM
same,TGI,[56],3210 nM
same,GI50,[31],1950 nM
same,TGI,[31],3730 nM
same,GI50,[32],1540 nM
same,TGI,[32],2910 nM
same,GI50,[33],1830 nM
same,TGI,[33],3510 nM
same,GI50,[58],1830 nM
same,TGI,[58],3490 nM
